# In patent US8647673B2, “Nanoparticles for imaging and treating chlamydial infection” (Wayne State University, priority 2007, dated 2014):
# Read-outs that look alike come from different tables or passages of the source.
# Test system: C. trachomatis (serovar K)
# Test: Microsusceptibility: chlamydial inclusion counts in infected McCoy cells
# Assay type: cell-based
# Details: for change in MIC50 with length of treatment: 24 vs 48 hrs incubation, treated immediately following infection; for MIC50: Chlamydia trachomatis; for sensitivity (decrease in inclusion number with increasing dose): drug added 24 or 48 hours post infection, 24 hours in presence of drug
# Procedure: FIG. 19. […] McCoy cells were infected with C trachomatis serovar K at MOI=1. […] Drugs were administered either encapsulated in nanoparticles (top panel) or dissolved in growth medium (bottom panel). Chlamydial viability was determined by counting the number of inclusions/well.
# Cells and growth of Chlamydia. McCoy cells were seeded onto 96-well microtitre plates at a concentration of 2×10^5 cells per well and allowed to adhere overnight at 37° C. and 5% CO2 in Eagles MEM supplemented with 10% FBS and […] Glutamine. The following day, the cells were inoculated with C. trachomatis (UW-31, serovar K) at 10^4 IFU/well and centrifuged at 2500 rpm for 1 hr at room temperature, followed by incubation at 37° C. for 1 hr. The inoculum was then aspirated and replaced with the appropriate two fold dilution of free drug or encapsulated nanoparticles prepared in antibiotic-free growth media containing 0.06% glucose and 1 μg/ml cyclohexamide. The cells were incubated in the presence of drug for 24 or 48 hrs post infection and then fixed with 100% MeOH. Chlamydial inclusions were detected by immunofluorescence using BioRad Pathfinder® according to the manufacturer's instructions and the plates subsequently stored protected from light at 4° C.
# McCoy cells were seeded onto 96-well microtiter plates and then infected the next day with 10^4 IFU/well C. trachomatis (serovar K).
# McCoy cells were seeded onto 96-well microtiter plates and then infected the next day with 10^4 IFU/well C. trachomatis (serovar K). […] The mean inclusion number was plotted as a function of concentration.
# McCoy cells (2×10^5/well) were seeded onto 96-well microtitre plates and then infected the next day with 10^4 IFU/well C. trachomatis (serovar K). […] The cells were incubated for 24 hours in the presence of drug and then fixed. Based on previous experiments we refined the concentrations ranges for each of the two free drugs and encapsulated nanoparticles.
# McCoy cells (2×10^5/well) were seeded onto 96-well microtitre plates and then infected the next day with 10^4 IFU/well C. trachomatis (serovar K). […] The cells were incubated for 24 hours in the presence of drug and then fixed. […] We, therefore, extended the concentration ranges for the two drugs.
# McCoy cells (2×10^5/well) were seeded onto 96-well microtitre plates and then infected the next day with 10^4 IFU/well C. trachomatis (serovar K). […] The cells were incubated for 24 hours or 48 hours in the presence of drug and then fixed.
# Free and nanoparticle-encapsulated antibiotics added at either t0 (time of infection) or after 24 hr of infection (t24), were compared along with blank nanoparticles as controls.
# [1] = 24 h, added immediately following infection, 24 hours in the presence of drug (Example 9), read-out: MIC50
# [2] = treated individually, MOI=1, drug added at overlay, nanoparticles not conjugated to folic acid (Example 16), read-out: MIC50
change in MIC50 with length of treatment,MIC50 [1] [µg/mL],"MIC50 (24 h, drug added at 24 hpi and left on for 24 hours, read-out: MIC50) [µg/mL]","MIC50 (read-out: MIC50 of rifampin, in the presence of 0.016 μg/ml azithromycin (Example 16)) [µg/mL]",MIC50 [2] [µg/mL],"MIC50 (in the presence of 0.004 μg/ml rifampin (Example 16), read-out: MIC50 of azithromycin) [µg/mL]",Compound,sensitivity (decrease in inclusion number with increasing dose)
no significant change in MIC50,0.005,> 0.08,0.002,0.008,–,CO[C@H]1/C=C/O[C@@]2(C)Oc3c(C)c(O)c4c(O)c(c(/C=N/N5CCN(C)CC5)c(O)c4c3C2=O)NC(=O)/C(C)=C\C=C\[C@H](C)[C@H](O)[C@@H](C)[C@@H](O)[C@@H](C)[C@H](OC(C)=O)[C@@H]1C [rifampin],marked insensitivity
no significant change in MIC50,0.04,–,–,0.032,0.016,CC[C@H]1OC(=O)[C@H](C)[C@@H](O[C@H]2C[C@@](C)(OC)[C@@H](O)[C@H](C)O2)[C@H](C)[C@@H](O[C@@H]2O[C@H](C)C[C@H](N(C)C)[C@H]2O)[C@](C)(O)C[C@@H](C)CN(C)[C@H](C)[C@@H](O)[C@]1(C)O [azithromycin],marked insensitivity
